From patent US20040006043A1, “Methods, pharmaceutical compositions and pharmaceutical kits for enhancing the therapeutic efficiency of cancer chemotherapeutic agents” (RAMOT UNIVERSITY AUTHORITY FOR APPLIED RESEARCH & …, priority 2002, published 2004)

Assays:
C6 cells = conditions: doxorubicin efflux, absence of a chemosensitizer
Protocol: Cells were grown in monolayers as described above. Several days prior to an experiment the cells (at a density in the range of 5×10^4-5×10^5 cells/ml) were seeded into 6 multiwell culture plates. The experiments were performed when the cells reached confluency.
At the end of the incubation the media was removed and the cells were incubated with “drug free media”, which consisted of either buffer alone, for cells loaded with drug only, or buffer that contained the chemosensitizer used at the same dose as in the incubation, for the cells loaded with the drug and the chemosensitizer. This replacement of the loading with the “drug free media” was performed in order to create the driving force for drug efflux from the cell into that external media. At designated periods (time points), the external media was collected and thereafter replaced by fresh “drug free media”, in order to maintain a unidirectional flux, from the cell out. The drug concentration was measured in each of the collected media, and in the cells at the end of the experiment.

C26 cells = test: Survival of BALB/c mice inoculated with C26 tumor cells; assay type: in vivo; conditions: C26 cells in right-hind foot pad
Protocol: BALB/c mice, female, 8 weeks old at the initiation of experiments were tested. Experiments were performed with 35 mice that were divided into 5 groups.
Mitomycin C (MMC), injection dose of 10 mg/Kg body.
C26 cells (originating from mouse colon carcinoma) were grown in cell culture flask essentially as described above under the in vitro experiments. At day 0 of the experiment, the cells were harvested, washed several times with PBS and at the final wash with Hank's buffer, counted and immediately injected subcutaneously into the right-hind foot pad of the mice. The injected dose was 5×10^5 cells/30 μl.
Saline and the chemotherapeutic formulations were administered on days 5, 12 and 19 of the experiment, by injection into the tail vein. All the injected volumes were 0.1 ml. Lithium, at 1 mM, was given in the drinking water continuously throughout the experiment, from the day of tumor inoculation.
35 mice, inoculated with tumor cells, were divides into groups and each group received a different treatment, as described hereinabove and is presented in Table 2 above. The animal survival was monitored continuously, from the first day of tumor inoculation.
FIG. 8 presents the animal survival, expressed in percentages of the total number of animals in the group.

[1] = Lithium 1 mM; cited from earlier work

SMILES: COc1cccc2c1C(=O)c1c(O)c3c(c(O)c1C2=O)C[C@@](O)(C(=O)CO)C[C@@H]3O[C@H]1C[C@H](N)[C@H](O)[C@H](C)O1 [F-DOX, doxorubicin]
- fraction of total intracellular drug load diffused out of the cell after 5 minutes (C6 cells): about 30%
- time for complete depletion of the cell from the drug (C6 cells): ≤ 3 h

SMILES: CO[C@@]12[C@H](COC(N)=O)C3=C(C(=O)C(C)=C(N)C3=O)N1C[C@@H]1N[C@@H]12 [Free MMC, Mitomycin C]
- day on which all animals were dead (C26 cells; MMC 10 mg/Kg i.v. on days 5, 12, 19): 33 days
- day on which animals started dying (C26 cells; MMC 10 mg/Kg i.v. on days 5, 12, 19, Lithium 1 mM in drinking water where given): 29 days

SMILES: [Li] [Lithium]
- in vivo safety of the in vitro dose [1]: within the in vivo safe range
